Data as given in patent publication US20220016197A1, “ZINGIBER ZERUMBET EXTRACT FOR COMBATING DANDRUFF” (PIERRE FABRE DERMO-COSMETIQUE, priority 2018, published 2022).

Tested on: Malassezia furfur CBS1878
Test: Anti Malassezia activity: enumeration of residual microorganisms after contact with test product
Type: cell-based
Conditions: for Enumeration of residual microorganisms after contact: product in mixture A inoculated with 1% inoculum of M. furfur at 10^7 CFU/ml; for log reduction value: versus initial number of microorganisms
Experimental: Indeed, M. furfur may proliferate anew if it is not completely or sufficiently removed. […] This component is generally measured by estimating the decay of microbial colonies over time.
Five formulas are tested in this test: • A compound used as reference: zinc pyrithione at 1.0% w/w in a mixture A comprising: sodium laureth sulfate 14.3%, alkyl dimethyl betaine 10.0%, decyl glucoside 3.8%, sorbitan monolaurate 2.0%, citric acid monohydrate 10% solution, qs pH=5; water qs 100; • A Zingiber zerumbet rhizome extract obtained by heptanic extraction from the dry and ground rhizome, at 2.0% w/w in mixture A; • A Zingiber zerumbet rhizome extract obtained by ethanolic extraction, at 2.0% w/w in mixture A; • A Zingiber zerumbet rhizome extract obtained by supercritical CO2 in a water-soluble excipient (butylene glycol) at 3.0% w/w in mixture A. This is a commercial material called Legance®, sold by the firm Sederma. The INCI name of this material is: Butylene glycol-Zingiber Zerumbet Extract.
An inoculation of 20 g of test product is carried out with 1% inoculum of Malassezia furfur titrating at 10^7 CFU/ml. After a determined contact time, 1 g of product is taken and a 1/10 dilution is carried out in the neutralizing diluent. Successive dilutions at 1/10 up to 1/1000 dilution are carried out in the diluent. 1 ml is filtered on a 0.45 μm membrane in ester and cellulose acetate in the presence of 50 ml of sterile demineralized water (SDW), then two rinses are carried out with 50 ml of SDW.
The chosen contact times are 1 h, 2 h, 5 h and 8 hours. The neutralizing diluent is TSB+10% polysorbate 80, the diluent is tryptone-salt. The rinsing liquid is sterile demineralized water.

zinc pyrithione [Compound 1]
activity on Malassezia furfur (in words): shows activity on Malassezia furfur from 1 hour of contact | reduction in the number of microorganisms (8 hours of contact): exceeds 3 log | Enumeration of residual microorganisms after contact (contact time 1 hour): 7.2 × 10^4 CFU/g | log reduction value (contact time 1 hour): 0.23 | Enumeration of residual microorganisms after contact (contact time 2 hours): 4.8 × 10^4 CFU/g | log reduction value (contact time 2 hours): 0.40 | Enumeration of residual microorganisms after contact (contact time 5 hours): 4.9 × 10^3 CFU/g | log reduction value (contact time 5 hours): 1.39 | Enumeration of residual microorganisms after contact (contact time 8 hours): <1.0 × 10^2 CFU/g | log reduction value (contact time 8 hours): >3.08
